These results are taken from patent US20240368133A1, “Compounds for the Treatment of Pain, in Particular, Neuropathic Pain, and/or Other Diseases or Disorders that are Associated with AT2R and/or AT2R Mediated Signaling” (Confo Therapeutics N.V., priority 2021, published 2024).

Series [1] in a line: Liver microsomal stability, rat. The following applies: male, pH 7.4, liver microsomes. The class given is in vitro ADME. Here is the method:
(§1) Mouse hepatic microsomes were isolated from pooled (50), perfused livers of male Balb/c mice. Rat hepatic microsomes were isolated from pooled (15), perfused livers of male Wistar rats. Isolation was performed according to the standard protocol (Hill, J. R. in Current Protocols in Pharmacology 7.8.1-7.8.11, Wiley Interscience, 2003). The batches of microsomes were tested for quality control using Imipramine, Propranolol and Verapamil as reference compounds.
(§2) Microsomal incubations were carried out in 96-well plates in 5 aliquots of 40 μL each (one for each time point). Liver microsomal incubation medium contained PBS (100 mM, pH 7.4), MgCl2 (3.3 mM), NADPH (3 mM), glucose-6-phosphate (5.3 mM), glucose-6-phosphate dehydrogenase (0.67 units/ml) with 0.42 mg of liver microsomal protein per ml. Control incubations were performed replacing the NADPH-cofactor system with PBS. Test compound (2 μM, final solvent concentration 1.6%) was incubated with microsomes at 37° C., shaking at 100 rpm. Incubations were performed in duplicates. Five time points over 40 minutes have been analyzed. The reactions were stopped by adding 12 volumes of 90% acetonitrile-water to incubation aliquots, followed by protein sedimentation by centrifuging at 5500 rpm for 3 minutes. […]. Supernatants were analyzed using the HPLC system coupled with tandem mass spectrometer (API3000 PE Sciex). Acquisition and analysis of the data were performed using Analyst 1.5.2 software (PE Sciex). The elimination constant (kel), half-life (t½) and intrinsic clearance (Clint) were determined in plot of […] versus time, using linear regression analysis:
(§3) Mouse hepatic microsomes were isolated from pooled, perfused livers of male CD1 mice. Rat hepatic microsomes were isolated from pooled, perfused livers of male Sprague Dawley rats. Dog hepatic microsomes were isolated from pooled, perfused livers of male Beagle dogs. The batches of microsomes were tested for quality control using Testosterone, Propranolol and Caffeine as reference compounds.
(§4) A 10 mM stock solution of compound in DMSO is diluted three-fold in DMSO. This pre-diluted compound solution is then further diluted to 2 μM in a 50 mM phosphate buffer (PBS, pH 7.4) and pre-warmed at 37° C. This compound dilution is mixed F2 with microsomal/cofactor mix at 37° C. under shaking at 300 rpm. Final reaction conditions are: 100 μL incubation volume, 1 μM of test compound (in duplicate), <0.1% DMSO, 0.5 mg/mL microsomes, 0.6 U/mL Glucose-6-phosphate-dehydrogenase (G6PDH, Roche, 10127671001), 3.3 mM MgCl2 (Sigma, M2670), 3.3 mM glucose-6-phosphate (Sigma, G-7879) and 1.3 mM NADP+ (Sigma, N-0505).
(§5) After 60 min of incubation at 300 rpm and 37° C., the reaction was stopped with 3 volumes of STOP solution (acetonitrile/MeOH 2/1 with diclofenac as internal standard). For the time point zero, 3 volumes of STOP solution were added to the compound dilution before the microsome mix was added. Six time points over 60 minutes have been analyzed. The samples of all time points were centrifuged, filtered and the supernatant analyzed by LCMS/MS (systems API4000).
(§6) The instrument responses (peak areas/IS peak area) were referenced to the zero time-point samples (considered as 100%) in order to determine the percentage of compound remaining.
(§7) Testosterone (1 μM) and Propranolol and Caffeine (1 μM) were used as reference compounds, being unstable and stable compounds respectively. If the microsomal stability values for these controls are not in the range determined by the historical data, the assay is not validated. The solubility of the compound in the final test concentration in 50 mM buffer pH 7.4 is checked by microscope to indicate whether precipitation is observed or not. If a precipitate is observed, no data of microsomal stability is generated.
(In general: Microsomes from liver hold many membrane-bound enzymes, among them those of drug oxidation.)

In a further series the target is human AT1R (Homo sapiens (Human), UniProt P30556). As to the kind of experiment: Counterscreen radioligand binding assay, displacement of 125I-[Sar1, Ile8]-Angiotensin II, hAT1R WT. The following applies: for inhibition at 1 µM / inhibition at 10 µM: 125I-[Sar1, Ile8]-Ang II, semi-quantitative score; for inhibition at 1 µM: compound at 1 μM, read-out: % Displaced radioligand at 1 μM; for inhibition at 10 µM: compound at 10 μM, read-out: % Displaced radioligand at 10 μM; for IC50: HEK-293 cell membranes, read-out: Binding affinity On hAT1R IC50. The procedure, abridged: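 Compounds displaced 0.05 nM 125I-[Sar1, Ile8]-Ang II from human AT1R in HEK-293 membranes (1 h, 25° C; Tris/MgCl2/EDTA/BSA buffer, pH 7.4). Readout was filtration and scintillation counting, with non-specific binding set by 10 μM [Sar1]-Ang II. Values are % displacement at 1 μM and […], or IC50 from eight-point four-parameter fits.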
A general note: Counterscreens check selectivity or assay interference.

A short description of series [2]: Liver microsomal stability, human. Format: in vitro ADME. To be noted: pH 7.4, liver microsomes. The method, then:
as §2, §4, §5, §6, §7

A further series has as its target human AT2R fused to Cb23 (Homo sapiens, UniProt P50052). As to the kind of experiment: Radioligand binding assay, displacement of 125I-[Sar1, Ile8]-Angiotensin II, hAT2R Cb23. The following applies: displacement of 125I-[Sar1, Ile8]-Angiotensin II, human AT2R fused to Cb23, HEK-293 cell membrane preparations; read-out: Binding affinity on hAT2R_Cb23 IC50. The procedure, abridged: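 Membranes from HEK-293 cells expressing human AT2R fused to Cb23 were incubated with 0.05 nM 125I-[Sar1, Ile8]-Angiotensin II in 100 μL buffer (50 mM Tris, 5 mM MgCl2, 1 mM EDTA, 0.1% BSA, pH 7.4) for one hour at 25° C. Ligands were tested as eight-point dose-response curves in duplicate, with C21 and Angiotensin II as references.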
For orientation: Loss of bound radioactivity is the signal in a displacement assay; it reports binding, not function.

A short description of series [3]: Liver microsomal stability, mouse. To be noted: male, pH 7.4, liver microsomes. The class given is in vitro ADME. Here is the method:
as §1, §2, §3, §4, §5, §6, §7

The target of another series is CYP2D6 (Homo sapiens (Human), UniProt P10635). As to the kind of experiment: CYP inhibition, CYP2D6. The class given is in vitro ADME. The following applies: CYP 2D6, ref. inhibitor conc. 0.5 μM. Here is the method:
The aim of this assay is to determine the inhibitory potential of a test compound. A major concern for drug-drug-interaction is cytochrome P450 inhibition. Reversible CYP inhibition was determined in human liver microsomes using specific probe substrates for human cytochrome P450 isoenzymes CYP1A2, 2C9, 2C19, 2D6 and 3A4. […]
A 10 mM stock solution of test compound is prepared in methanol. This stock is further serially diluted 1:3 in methanol and then added to mixture containing 50 mM potassium phosphate buffer pH7.4, human liver microsomes (BD Gentest) and probe substrate. After pre-warming 5 min at 37° C., the reaction is started by adding co-factor mix ([…] glucose-6-phosphate, 1.7 mg/mL NADP, 6 U/mL of glucose-6-phosphate dehydrogenase), resulting in a final concentration of test compound at 10 μM (2% MeOH).
Final concentrations of co-factor mix components are as follows: 1.56 mg/mL glucose-6-phosphate, 0.34 mg/mL NADP, 1.2 U/mL of glucose-6-phosphate dehydrogenase.
After incubation at 37° C., the reaction (aliquot of 50 μL) is terminated with 150 μL CH3CN:MeOH (2:1) solution with internal standard (warfarin for 2C9, diclofenac for all other tested isoforms). Samples are centrifuged and the supernatant fractions analyzed by LC-MS/MS.
The instrument responses (ratio of test compound and internal standard peak areas) are referenced to those for solvent controls (assumed as 100%) in order to determine the percentage reduction in probe metabolism. Percent of control activity vs. concentration plots are generated and fitted using GraphPad Prism software to generate IC50.

human AT2R fused to Cb23, sequence (P50052 whole entry, looked up, the tested form may be a part): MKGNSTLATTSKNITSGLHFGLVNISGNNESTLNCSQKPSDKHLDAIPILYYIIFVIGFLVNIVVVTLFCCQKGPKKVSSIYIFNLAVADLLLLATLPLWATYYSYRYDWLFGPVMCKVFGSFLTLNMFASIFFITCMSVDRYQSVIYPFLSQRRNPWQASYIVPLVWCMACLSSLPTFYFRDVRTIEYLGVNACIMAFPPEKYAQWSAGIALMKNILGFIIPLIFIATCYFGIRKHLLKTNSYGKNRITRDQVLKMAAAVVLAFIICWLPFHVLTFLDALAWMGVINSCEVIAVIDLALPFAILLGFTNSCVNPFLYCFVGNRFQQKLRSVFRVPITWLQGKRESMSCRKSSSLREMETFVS
human AT1R, sequence (P30556 whole entry): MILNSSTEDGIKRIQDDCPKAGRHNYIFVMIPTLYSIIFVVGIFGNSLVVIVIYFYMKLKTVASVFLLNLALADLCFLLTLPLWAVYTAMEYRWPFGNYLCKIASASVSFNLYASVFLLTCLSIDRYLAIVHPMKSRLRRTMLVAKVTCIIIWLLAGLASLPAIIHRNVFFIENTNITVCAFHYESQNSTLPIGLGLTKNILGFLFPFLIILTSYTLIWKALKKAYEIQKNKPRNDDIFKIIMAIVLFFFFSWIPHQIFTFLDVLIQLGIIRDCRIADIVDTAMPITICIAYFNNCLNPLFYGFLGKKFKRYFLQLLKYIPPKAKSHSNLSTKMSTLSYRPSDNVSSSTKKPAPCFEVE
CYP2D6, sequence (P10635 whole entry): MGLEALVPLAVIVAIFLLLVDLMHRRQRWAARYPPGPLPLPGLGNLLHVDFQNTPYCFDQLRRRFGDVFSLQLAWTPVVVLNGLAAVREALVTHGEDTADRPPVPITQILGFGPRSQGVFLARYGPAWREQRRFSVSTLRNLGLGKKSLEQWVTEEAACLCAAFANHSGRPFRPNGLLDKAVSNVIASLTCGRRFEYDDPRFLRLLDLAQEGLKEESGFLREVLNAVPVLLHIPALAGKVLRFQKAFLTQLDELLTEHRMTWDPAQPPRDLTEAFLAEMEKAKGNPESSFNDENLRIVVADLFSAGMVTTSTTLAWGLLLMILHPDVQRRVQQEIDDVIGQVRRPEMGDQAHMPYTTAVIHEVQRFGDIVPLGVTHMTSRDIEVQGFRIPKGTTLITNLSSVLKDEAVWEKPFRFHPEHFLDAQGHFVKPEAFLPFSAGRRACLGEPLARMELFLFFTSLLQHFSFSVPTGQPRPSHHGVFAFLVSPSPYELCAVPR

Take `CC(C)Cc1ccc(-c2nn[nH]n2)c(N2CCN(Cc3nc4ccccc4s3)CC2)c1` [Compound A-48, 2-[[4-[5-isobutyl-2-(2H-tetrazol-5-yl)-phenyl]piperazin-1-yl]methyl]-1,3-benzothiazole]: the microsomal CLint (as a rule, a measure of how fast metabolising enzymes remove a compound, apart from limits set by blood flow) worked out at 13 µL/min/mg in series [1], 32 µL/min/mg in series [2] and 14 µL/min/mg in series [3]. Also, at human AT1R, the inhibition at 1 µM is < 30%. Moreover, the inhibition at 10 µM on human AT1R was 30 to 50%. In addition, the half-maximal inhibitory concentration (IC50) (commonly the concentration needed to halve the response being measured) is 27.8 µM on human AT1R and 0.628 µM on human AT2R fused to Cb23.

On to `CC(C)Cc1ccc(-c2nn[nH]n2)c(C2CCN(Cc3cccnn3)CC2)c1` [Compound A-234, 3-[[4-[5-isobutyl-2-(2H-tetrazol-5-yl)-phenyl]-1-piperid-yl]methyl]pyrid-azine], for which, on human AT1R, the inhibition at 1 µM is < 30% and the inhibition at 10 µM is < 30%. For the same molecule, the half-maximal inhibitory concentration (IC50) on human AT2R fused to Cb23 is 2.02 µM.

With `CC(C)Cc1ccc(-c2nn[nH]n2)c(C2CCN(Cc3cccnn3)C2)c1` (stereo not drawn) [Compound A-235, 3-[[3-[5-isobutyl-2-(2H-tetrazol-5-yl)-phenyl]pyrrolidin-1-yl]methyl]pyrid-azine], at human AT1R, the inhibition at 1 µM is < 30% and the inhibition at 10 µM was < 30%. Also, on human AT2R fused to Cb23, the IC50 came out at 6.89 µM.

For `CC(C)Cc1ccc(-c2nn[nH]n2)c(N2CC(NCc3cccnn3)C2)c1` [Compound A-236, 1-(5-isobutyl-2-(2H-tetrazol-5-yl)-phenyl)-N-(pyrid-azin-3-ylmethyl)-azetidin-3-amine], on human AT1R, the inhibition at 1 µM is < 30% and the inhibition at 10 µM is < 30%. Further, the IC50 on human AT2R fused to Cb23 is 1.01 µM.

As to `CC(C)Cc1ccc(-c2nn[nH]n2)c(C(=O)N2CCN(Cc3cccnn3)CC2)c1` [Compound A-239, [5-isobutyl-2-(2H-tetrazol-5-yl)phenyl]-[4-(pyridazin-3-ylmethyl)piperazin-1-yl]methanone], at human AT1R, the inhibition at 1 µM is < 30% and the inhibition at 10 µM was < 30%. The IC50 on human AT2R fused to Cb23 is 2.57 µM.

In the case of `CCCN(C(=O)c1cccs1)c1ccc2nc(CC)n(CC3CCN(c4ccccc4-c4nn[nH]n4)CC3)c(=O)c2c1` [Compound A-243, N-[2-ethyl-4-oxo-3-[[1-[2-(2H-tetrazol-5-yl)phen-yl]-4-piperidyl]-methyl]quinazolin-6-yl]-N-propyl-thiophene-2-carbox-amide], on human AT1R, the inhibition at 1 µM was < 30%, the inhibition at 10 µM was > 50% and the half-maximal inhibitory concentration (IC50) is 11.5 µM. In addition, the IC50 at human AT2R fused to Cb23 was 0.159 µM.

For `CCc1nc2ccc(N(Cc3cccnc3)C(=O)c3cccs3)cc2c(=O)n1CC1CCN(c2ccccc2-c2nn[nH]n2)CC1` [Compound A-244, N-[2-ethyl-4-oxo-3-[[1-[2-(2H-tetrazol-5-yl)phenyl]-4-piperidyl]methyl]quinazolin-6-yl]-N-(3-pyridylmethyl)thiophene-2-carboxamide], on human AT1R, the inhibition at 1 µM was < 30%, the inhibition at 10 µM is > 50% and the IC50 turned out to be 6.62 µM. Further, the IC50 on human AT2R fused to Cb23 stood at 0.104 µM.

With `CCc1nc2ccc(N(Cc3ccccc3)C(=O)c3cccs3)cc2c(=O)n1CC1CCN(c2ccccc2-c2nn[nH]n2)CC1` [Compound A-246, N-benzyl-N-[2-ethyl-4-oxo-3-[[1-[2-(2H-tetrazol-5-yl)phenyl]-4-piper-idyl]methyl]quin-azolin-6-yl]thio-phene-2-carbox-amide], at human AT1R, the inhibition at 1 µM was < 30%, the inhibition at 10 µM was 30 to 50% and the IC50 is 26.7 µM. At human AT2R fused to Cb23, the 50% inhibitory concentration (IC50) amounted to 0.102 µM.

As to `CCc1nc2ccc(N(Cc3ccccc3Cl)C(=O)c3cccs3)cc2c(=O)n1CC1CCN(c2ccccc2-c2nn[nH]n2)CC1` [Compound A-248, N-[(2-chlorophenyl)methyl]-N-[2-ethyl-4-oxo-3-[[1-[2-(2H-tetrazol-5-yl)phenyl]-4-piperidyl]methyl]quinazolin-6-yl]thiophene-2-carboxamide], on human AT1R, the inhibition at 1 µM is < 30%, the inhibition at 10 µM is < 30% and the 50% inhibitory concentration (IC50) is 40.1 µM. The IC50 at human AT2R fused to Cb23 turned out to be 0.048 µM.

Regarding `C=C[C@H]1C[N@@]2CC[C@H]1C[C@@H]2[C@@H](O)c1ccnc2ccc(OC)cc12` [quinidine, reference compound], the inhibition at 25 min, 0.5 µM against CYP2D6 came out at 87.3%.
